Results published in patent publication US8883788B2, “Fused heterocyclic ring compound” (Takeda Pharmaceutical Company Limited, priority 2010, dated 2014).

Target: T1, human PDE10A enzyme (Homo sapiens, UniProt Q9Y233)
T1 construct: Human PDE10A full-length gene was transfected into Sf9 or COS-7 cells; His-tag; made in house; host or cells: Sf9 or COS-7 cells
Assay: PDE10A enzyme activity inhibition test (SPA)
Format: biochemical
Conditions: compound 1 μM, substrate [3H]cGMP, 60 min at room temperature, read-out: inhibition rate (%) (1 μM)
Procedure: Human PDE10A full-length gene was transfected into Sf9 or COS-7 cells. The cells were disrupted and centrifuged, and human PDE10A enzyme was obtained from the residue. The enzyme extracted from Sf9 cells was partially purified using His-tag affinity column. The enzyme was stored at −70° C. until use. The PDE activity was measured using an SPA (Scintillation Proximity Assay) (GE Healthcare). To measure the inhibitory activity of the compound, 10 μL of serially diluted compound was reacted with 20 μL of PDE enzyme in an assay buffer (50 mM HEPES-NaOH, 8.3 mM MgCl2, 1.7 mM EGTA, 0.1% BSA (pH 7.4)) […] at room temperature. The final concentration of DMSO in the reaction mixture was 1 percent. The compounds were evaluated in duplicate in 96-well half-area plates (Corning). To start the reaction, 10 μL of substrate [^3H] cGMP (25 and 50 nM; GE Healthcare and PerkinElmer, respectively) was added to 40 μL. After 60 min of reaction at room temperature, yttrium SPA beads containing zinc sulphate were added (6 mg/mL, 20 μL) to terminate the reaction. After standing still for 1 hr, the measurement was performed using a scintillation counter (PerkinElmer) and the inhibition rate was calculated. The inhibition rate was calculated based on the control containing enzyme and DMSO as 0% and the control without enzyme as 100%.

T1 sequence (Q9Y233 267-1055): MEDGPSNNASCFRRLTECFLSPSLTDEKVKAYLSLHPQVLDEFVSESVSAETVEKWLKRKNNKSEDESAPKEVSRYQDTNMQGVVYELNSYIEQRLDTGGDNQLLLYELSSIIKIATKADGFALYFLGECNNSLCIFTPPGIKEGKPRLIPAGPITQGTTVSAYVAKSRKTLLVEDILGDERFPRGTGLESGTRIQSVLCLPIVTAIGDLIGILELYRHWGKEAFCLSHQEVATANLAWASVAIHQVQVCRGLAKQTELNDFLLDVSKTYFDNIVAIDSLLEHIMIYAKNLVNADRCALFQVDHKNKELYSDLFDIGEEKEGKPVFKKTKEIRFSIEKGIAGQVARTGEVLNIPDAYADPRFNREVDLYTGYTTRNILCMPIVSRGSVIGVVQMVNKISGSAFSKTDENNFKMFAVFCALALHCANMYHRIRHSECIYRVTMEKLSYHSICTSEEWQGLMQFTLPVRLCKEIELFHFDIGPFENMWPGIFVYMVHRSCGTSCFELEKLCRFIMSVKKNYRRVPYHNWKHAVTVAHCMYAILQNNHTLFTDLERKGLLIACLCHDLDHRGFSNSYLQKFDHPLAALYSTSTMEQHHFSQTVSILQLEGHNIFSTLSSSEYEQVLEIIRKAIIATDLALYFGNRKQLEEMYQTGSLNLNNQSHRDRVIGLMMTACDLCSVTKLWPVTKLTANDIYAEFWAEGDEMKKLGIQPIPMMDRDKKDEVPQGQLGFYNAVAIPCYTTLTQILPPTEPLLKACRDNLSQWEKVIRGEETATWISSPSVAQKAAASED

Row | inhibition at 1 µM [%] | SMILES
1 | 96 | Cn1cc(OCCCc2nc3ccccc3n2C)c(=O)c(-c2ccnn2-c2ccccc2)n1 [Example 1, 1-methyl-5-[3-(1-methyl-1H-benzimidazol-2-yl)propoxy]-3-(1-phenyl-1H-pyrazol-5-yl)pyridazin-4(1H)-one]
2 | 101 | Cn1cc(OCCN2CCn3c2nc2ccccc23)c(=O)c(-c2ccnn2-c2ccccc2)n1 [Example 2, 5-[2-(2,3-dihydro-1H-imidazo[1,2-a]benzimidazol-1-yl)ethoxy]-1-methyl-3-(1-phenyl-1H-pyrazol-5-yl)pyridazin-4(1H)-one]
3 | 98 | Cn1c(CCCOc2cn(CC3CC3)nc(-c3ccnn3-c3ccccc3)c2=O)nc2ccccc21 [Example 3, 1-(cyclopropylmethyl)-5-[3-(1-methyl-1H-benzimidazol-2-yl)propoxy]-3-(1-phenyl-1H-pyrazol-5-yl)pyridazin-4(1H)-one]
4 | 100 | O=c1c(OCCN2CCn3c2nc2ccccc23)cn(CC2CC2)nc1-c1ccnn1-c1ccccc1 [Example 4, 1-(cyclopropylmethyl)-5-[2-(2,3-dihydro-1H-imidazo[1,2-a]benzimidazol-1-yl)ethoxy]-3-(1-phenyl-1H-pyrazol-5-yl)pyridazin-4(1H)-one]
5 | 95.4 | Cn1nccc1-c1nn(-c2ccccc2)cc(OCCCc2nc3ccccc3n2C)c1=O [Example 5, 5-[3-(1-methyl-1H-benzimidazol-2-yl)propoxy]-3-(1-methyl-1H-pyrazol-5-yl)-1-phenylpyridazin-4(1H)-one]
6 | 97.2 | Cn1nccc1-c1nn(-c2ccccc2)cc(OCCN2CCn3c2nc2ccccc23)c1=O [Example 6, 5-[2-(2,3-dihydro-1H-imidazo[1,2-a]benzimidazol-1-yl)ethoxy]-3-(1-methyl-1H-pyrazol-5-yl)-1-phenylpyridazin-4(1H)-one]
7 | 96.8 | Cn1nccc1-c1nn(-c2ccccc2)cc(OCCc2ccc3ccccc3n2)c1=O [Example 7, 3-(1-methyl-1H-pyrazol-5-yl)-1-phenyl-5-(2-quinolin-2-ylethoxy)pyridazin-4(1H)-one]
8 | 68.4 | Cn1nccc1-c1nn(-c2ccccc2)cc(OCc2ccc3ccccc3n2)c1=O [Example 8, 3-(1-methyl-1H-pyrazol-5-yl)-1-phenyl-5-(quinolin-2-ylmethoxy)pyridazin-4(1H)-one]
9 | 6.5 | O=c1cnn(-c2cccc(C(F)(F)F)c2)cc1OCc1ccc2ccccc2n1 [Example 9, 5-(quinolin-2-ylmethoxy)-1-[3-(trifluoromethyl)phenyl]pyridazin-4(1H)-one]
10 | 95 | Cn1cc(OCCOc2nc3ccccc3n2C)c(=O)c(-c2ccnn2-c2ccccc2)n1 [Example 10, 1-methyl-5-{2-[(1-methyl-1H-benzimidazol-2-yl)oxy]ethoxy}-3-(1-phenyl-1H-pyrazol-5-yl)pyridazin-4(1H)-one]
11 | 100 | Cn1cc(OCCCc2cn3ccccc3n2)c(=O)c(-c2ccnn2-c2ccccc2)n1 [Example 11, 5-(3-imidazo[1,2-a]pyridin-2-ylpropoxy)-1-methyl-3-(1-phenyl-1H-pyrazol-5-yl)pyridazin-4(1H)-one]
12 | 102 | Cn1cc(OCCCc2nc3cccnc3n2C)c(=O)c(-c2ccnn2-c2ccccc2)n1 [Example 12, 1-methyl-5-[3-(3-methyl-3H-imidazo[4,5-b]pyridin-2-yl)propoxy]-3-(1-phenyl-1H-pyrazol-5-yl)pyridazin-4(1H)-one]
13 | 100 | Cn1c(CCCOc2cn(CC3CC3)nc(-c3ccnn3-c3ccccc3)c2=O)nc2cccnc21 [Example 13, 1-(cyclopropylmethyl)-5-[3-(3-methyl-3H-imidazo[4,5-b]pyridin-2-yl)propoxy]-3-(1-phenyl-1H-pyrazol-5-yl)pyridazin-4(1H)-one]
14 | 98 | Cn1c(OCCOc2cn(CC3CC3)nc(-c3ccnn3-c3ccccc3)c2=O)nc2ccccc21 [Example 14, 1-(cyclopropylmethyl)-5-{2-[(1-methyl-1H-benzimidazol-2-yl)oxy]ethoxy}-3-(1-phenyl-1H-pyrazol-5-yl)pyridazin-4 (H)-one]
15 | 13 | O=c1c(OCCOc2ccc3ccccc3n2)cn(CC2CC2)nc1-c1ccnn1-c1ccccc1 [Example 15, 1-(cyclopropylmethyl)-3-(1-phenyl-1H-pyrazol-5-yl)-5-[2-(quinolin-2-yloxy)ethoxy]pyridazin-4(1H)-one]
16 | 98 | O=c1c(OCCCc2cn3ccccc3n2)cn(CC2CC2)nc1-c1ccnn1-c1ccccc1 [Example 16, 1-(cyclopropylmethyl)-5-(3-imidazo[1,2-a]pyridin-2-ylpropoxy)-3-(1-phenyl-1H-pyrazol-5-yl)pyridazin-4(1H)-one]
17 | 60 | O=c1c(OCc2ccc3ccccc3n2)cn(CC2CC2)nc1-c1ccnn1-c1ccccc1 [Example 17, 1-(cyclopropylmethyl)-3-(1-phenyl-1H-pyrazol-5-yl)-5-(quinolin-2-ylmethoxy)pyridazin-4(1H)-one]
18 | 20 | O=c1c(OCc2ccc3cccnc3c2)cn(CC2CC2)nc1-c1ccnn1-c1ccccc1 [Example 18, 1-(cyclopropylmethyl)-3-(1-phenyl-1H-pyrazol-5-yl)-5-(quinolin-7-ylmethoxy)pyridazin-4(1H)-one]
19 | 94 | O=c1c(OCCn2ccn3ccnc23)cn(CC2CC2)nc1-c1ccnn1-c1ccccc1 [Example 19, 1-(cyclopropylmethyl)-5-[2-(1H-imidazo[1,2-a]imidazol-1-yl)ethoxy]-3-(1-phenyl-1H-pyrazol-5-yl)pyridazin-4(1H)-one]
20 | 99 | Cn1c(CCCOc2cn(C3CCC3)nc(-c3ccnn3-c3ccccc3)c2=O)nc2ccccc21 [Example 20, 1-cyclobutyl-5-[3-(1-methyl-1H-benzimidazol-2-yl)propoxy]-3-(1-phenyl-1H-pyrazol-5-yl)pyridazin-4(1H)-one]
21 | 107 | Cn1c(CCCOc2cn(C3CCC3)nc(-c3ccnn3-c3ccccc3)c2=O)nc2cccnc21 [Example 21, 1-cyclobutyl-5-[3-(3-methyl-3H-imidazo[4,5-b]pyridin-2-yl)propoxy]-3-(1-phenyl-1H-pyrazol-5-yl)pyridazin-4 (H)-one]
22 | 98 | O=c1c(OCCN2CCn3c2nc2ccccc23)cn(C2CCC2)nc1-c1ccnn1-c1ccccc1 [Example 22, 1-cyclobutyl-5-[2-(2,3-dihydro-1H-imidazo[1,2-a]benzimidazol-1-yl)ethoxy]-3-(1-phenyl-1H-pyrazol-5-yl)pyridazin-4 (H)-one]
23 | 100 | Cn1c(OCCOc2cn(C3CCC3)nc(-c3ccnn3-c3ccccc3)c2=O)nc2ccccc21 [Example 23, 1-cyclobutyl-5-{2-[(1-methyl-1H-benzimidazol-2-yl)oxy]ethoxy}-3-(1-phenyl-1H-pyrazol-5-yl)pyridazin-4(1H)-one]
24 | 100 | O=c1c(OCCCc2cn3ccccc3n2)cn(C2CCC2)nc1-c1ccnn1-c1ccccc1 [Example 24, 1-cyclobutyl-5-(3-imidazo[1,2-a]pyridin-2-ylpropoxy)-3-(1-phenyl-1H-pyrazol-5-yl)pyridazin-4(1H)-one]
25 | 96 | Cn1c(CCCOc2cn(CC(F)(F)F)nc(-c3ccnn3-c3ccccc3)c2=O)nc2ccccc21 [Example 25, 5-[3-(1-methyl-1H-benzimidazol-2-yl)propoxy]-3-(1-phenyl-1H-pyrazol-5-yl)-1-(2,2,2-trifluoroethyl)pyridazin-4(1H)-one]
26 | 101 | Cn1c(CCCOc2cn(CC(F)(F)F)nc(-c3ccnn3-c3ccccc3)c2=O)nc2cccnc21 [Example 26, 5-[3-(3-methyl-3H-imidazo[4,5-b]pyridin-2-yl)propoxy]-3-(1-phenyl-1H-pyrazol-5-yl)-1-(2,2,2-trifluoroethyl)pyridazin-4(1H)-one]
27 | 98 | O=c1c(OCCN2CCn3c2nc2ccccc23)cn(CC(F)(F)F)nc1-c1ccnn1-c1ccccc1 [Example 27, 5-[2-(2,3-dihydro-1H-imidazo[1,2-a]benzimidazol-1-yl)ethoxy]-3-(1-phenyl-1H-pyrazol-5-yl)-1-(2,2,2-trifluoroethyl)pyridazin-4(1H)-one]
